Among the test systems are UACC-62 melanoma; ACHN renal; SW-620 colon; NCI-H23 lung; SF-295 CNS; HT29 colon; PC-3 prostate; 786-0 renal; COLO 205 colon; HCT-15 colon.
What all share (assay): inhibition of tumour cell growth, NCI panel, 48 h

Several values for one entry are separate records, joined by “and”; a condition that tells them apart may be missing. Equal values may be shown once.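 Following 48 hours of exposure in 96-well plates, responses at five concentrations were used to interpolate endpoints linearly. GI50 is the concentration that inhibits growth by half. TGI: concentration producing complete growth inhibition.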

With `CS(=O)(=O)Nc1cc(-c2ccc3ncnc(Nc4ccc(F)c(Cl)c4)c3c2)cnc1Cl`, the GI50 in the test with UACC-62 melanoma is 0.255 µM; in the test on ACHN renal, 0.404 µM and 0.575 µM; in the test on SW-620 colon, 0.741 µM and 1.01 µM; with NCI-H23 lung, 0.484 µM and 0.57 µM; in the test on SF-295 CNS it was 0.612 µM and 0.606 µM; in the test on HT29 colon it was 0.369 µM and 0.503 µM. In addition, the GI50 is 0.594 µM and 0.562 µM with PC-3 prostate; 0.638 µM and 0.671 µM in the test with 786-0 renal; 0.562 µM and 1.06 µM in the test on COLO 205 colon; 0.559 µM and 0.542 µM in the test on HCT-15 colon. Besides, the TGI with UACC-62 melanoma was 1.56 µM; in the test with ACHN renal it was 13.8 µM and > 42.5 µM; with SW-620 colon, 11.2 µM and 11.9 µM; in the test on NCI-H23 lung, 14.7 µM and 10.6 µM; in the test with SF-295 CNS, 4.11 µM and 3.85 µM; in the test with HT29 colon, 6.82 µM and 7.81 µM. Also, the TGI in the test on PC-3 prostate is 5.2 µM and 7.02 µM; with 786-0 renal it was 5.45 µM and 6.65 µM; in the test on COLO 205 colon, 2.19 µM and 4.53 µM; with HCT-15 colon it was 11.2 µM and 11.6 µM.
Consider `COc1cc(Cl)cc(-c2nn(-c3cccc(NC(=O)Nc4cccc(C(F)(F)F)c4)c3)cc2-c2ccncc2)c1`, for which the GI50 is 1.47 µM in the test on UACC-62 melanoma; 1.72 µM in the test on ACHN renal; 2.3 µM in the test on SW-620 colon; 1.76 µM with NCI-H23 lung; 0.783 µM with SF-295 CNS; 1.51 µM in the test with HT29 colon. Moreover, the GI50 is 0.417 µM in the test on PC-3 prostate, 1.94 µM in the test with 786-0 renal, 1.53 µM with COLO 205 colon and 1.34 µM in the test on HCT-15 colon. The TGI in the test on UACC-62 melanoma came to 3.84 µM; in the test on ACHN renal it was 16.2 µM; with SW-620 colon, 26.8 µM; with NCI-H23 lung, 6.69 µM; in the test on SF-295 CNS it was 4.62 µM; with HT29 colon, 6.24 µM. The TGI in the test on PC-3 prostate was found to be 3.2 µM; in the test with 786-0 renal, 6.78 µM; with COLO 205 colon, 3.17 µM; with HCT-15 colon, 10.6 µM.
With `COc1cccc(/C=C/c2nc3c(cnn3-c3ccccc3)c(=O)[nH]2)c1`, the GI50 in the test on UACC-62 melanoma is over 100 µM; in the test with ACHN renal, 28.1 µM; with SW-620 colon it was over 31.4 µM; in the test with NCI-H23 lung, over 100 µM; in the test on SF-295 CNS, 17.8 µM; in the test with HT29 colon, over 59 µM. Also, the GI50 was over 100 µM in the test on PC-3 prostate, 12.4 µM with 786-0 renal, over 100 µM with COLO 205 colon and over 100 µM with HCT-15 colon. Moreover, the TGI in the test on UACC-62 melanoma, in the test on ACHN renal, in the test with SW-620 colon, with NCI-H23 lung, in the test on SF-295 CNS and in the test with HT29 colon was over 100 µM in each case. Further, the TGI in the test with PC-3 prostate, in the test on 786-0 renal, in the test with COLO 205 colon and in the test on HCT-15 colon was over 100 µM in each case.
Take `OB(O)c1ccccc1C#Cc1ccccc1B(O)O`: the TGI with UACC-62 melanoma is 30.8 µM; in the test with ACHN renal, over 100 µM; in the test on SW-620 colon, over 100 µM; in the test on NCI-H23 lung, 90.9 µM; with SF-295 CNS, 75.9 µM; with HT29 colon it was over 100 µM. The TGI in the test on PC-3 prostate was over 100 µM; in the test on 786-0 renal it was over 100 µM; in the test with COLO 205 colon it was 35.1 µM; in the test on HCT-15 colon, over 100 µM.
`O=C(NCCc1ccccc1)Nc1ccc2cc3ccc(NC(=O)NCCc4ccccc4)cc3nc2c1`: the GI50 in the test with UACC-62 melanoma is 1.29 µM; with ACHN renal it was 20.9 µM; with SW-620 colon, 0.346 µM; in the test on NCI-H23 lung, 0.857 µM; in the test with SF-295 CNS, 1.94 µM; in the test on HT29 colon, 1.39 µM. Besides, the GI50 is 1.63 µM with PC-3 prostate, 2.07 µM in the test on 786-0 renal, 0.318 µM in the test on COLO 205 colon and over 100 µM in the test with HCT-15 colon. Also, the TGI in the test with UACC-62 melanoma is 2.74 µM; with ACHN renal, over 100 µM; with SW-620 colon, 1.31 µM; in the test with NCI-H23 lung it was 2.48 µM; in the test on SF-295 CNS, 4.79 µM; in the test with HT29 colon, 3.56 µM. For the same compound, the TGI in the test with PC-3 prostate is 3.59 µM; in the test with 786-0 renal, 6.93 µM; in the test with COLO 205 colon, 1.19 µM; in the test on HCT-15 colon, over 100 µM.
For the compound `C[N+](C)(C)CC1CCC(C[N+](C)(C)C)C1=O` (stereo unspecified), the TGI in the test on UACC-62 melanoma stood at 17.9 µM; in the test with ACHN renal it was 3.49 µM; with SW-620 colon, 2.86 µM; in the test on NCI-H23 lung, 8.27 µM; in the test on SF-295 CNS, 35.9 µM; with HT29 colon, 3.4 µM. The TGI in the test with PC-3 prostate came out at 31.3 µM; in the test on 786-0 renal, 4.06 µM; in the test with COLO 205 colon, 1.58 µM; in the test with HCT-15 colon it was 4.18 µM. Further, the GI50 in the test with SW-620 colon was 1.18 µM; in the test on COLO 205 colon, 0.457 µM.
`CNC(=O)c1cc(Oc2cccc3nc(NC(=O)Nc4cc(C(F)(F)F)cc(C(F)(F)F)c4)ccc23)ccn1`: the GI50 in the test with UACC-62 melanoma was 3.56 µM; in the test with ACHN renal it was 3.8 µM; in the test on SW-620 colon it was 16.9 µM; in the test with NCI-H23 lung, 6.15 µM; in the test with SF-295 CNS it was 3.69 µM; in the test on HT29 colon it was 3.51 µM. Besides, the GI50 in the test with PC-3 prostate is 6.06 µM; with 786-0 renal, 2.41 µM; with COLO 205 colon, 10.8 µM; in the test with HCT-15 colon it was 18.1 µM. Moreover, the TGI with UACC-62 melanoma was 22.5 µM; with ACHN renal, 16.4 µM; with SW-620 colon, over 100 µM; with NCI-H23 lung, 42.7 µM; in the test with SF-295 CNS it was 15.2 µM; with HT29 colon, over 100 µM. Besides, the TGI was 38.2 µM in the test with PC-3 prostate, 5.73 µM with 786-0 renal, 23.8 µM in the test on COLO 205 colon and over 100 µM in the test with HCT-15 colon.
Consider `N#Cc1ccc(-c2c(-c3ncn[nH]3)sc(N3CCOCC3)c2C#N)c(F)c1`, for which the GI50 in the test with UACC-62 melanoma was 0.384 µM; in the test with ACHN renal, 0.398 µM; in the test on SW-620 colon, 2.94 µM; in the test with NCI-H23 lung, 3.32 µM; in the test with SF-295 CNS it was 0.426 µM; in the test with HT29 colon, 0.363 µM. The GI50 with PC-3 prostate was 0.345 µM; in the test with 786-0 renal, 0.457 µM; in the test on COLO 205 colon it was 0.687 µM; in the test on HCT-15 colon, 0.596 µM. Besides, the TGI was 2.64 µM in the test on UACC-62 melanoma; 29.9 µM in the test on SW-620 colon; over 100 µM with NCI-H23 lung; 11.4 µM in the test with SF-295 CNS; 18.3 µM in the test with HT29 colon; 20.3 µM in the test with PC-3 prostate. The TGI with 786-0 renal amounted to 12.1 µM; in the test on COLO 205 colon it was 15.6 µM; in the test with HCT-15 colon, 18.5 µM.

The record behind these values is PubChem BioAssay (NCI).
